Read-outs that look alike come from different tables or passages of the source.
Assays:
[1] = Pharmacokinetic analysis following PO administration in monkey
[2] = Pharmacokinetic analysis following PO administration in dog; format: in vivo
Description: Example 2: Pharmacokinetic analysis of Compound 1: The PK of Compound 1 and the reference compound Naltrexone was determined following IV (1 mg/kg) and PO (10 mg/kg or 1 mg/kg) administration. Concentrations of Compound 1 and naltrexone were determined by LC-MS/MS. The PK parameters were determined by noncompartmental analysis using WiNonlin (v5.1). FIGS. 2-4 show the PK profiles of naltrexone and Compound 1.

[3] = Pharmacokinetic analysis following PO administration in rat
[4] = dog, oral dose 1 (mg); Reuning et at. J Pharm Sci. 1979; cited from earlier work

Compound | AUC(0-inf) ([1]; monkey, in vivo, po, 10 mg/kg) [ng·h/mL] | Cmax ([1]; monkey, in vivo, po, 10 mg/kg) [ng/mL] | bioavailability ([1]; monkey, in vivo, po, 10 mg/kg) [%] | half-life ([1]; monkey, in vivo, po, 10 mg/kg) [h] | improvement in oral bioavailability in comparison with naltrexone ([1]; monkeys, oral administration) | AUC(0-inf) ([2]; dog, in vivo, po, 1 mg/kg) [ng·h/mL] | half-life ([2]; dog, in vivo, po, 1 mg/kg) [h] | improvement in oral bioavailability in comparison with naltrexone ([2]; dogs, oral administration) | Cmax ([2]; in vivo, 1 mg/kg, dog, oral dose 1 (mg)) [ng/mL] | bioavailability ([2]; in vivo, 1 mg/kg, dog, oral dose 1 (mg), read-out: Bioavailability (F %)) [%] | AUC(0-inf) ([3]; rat, in vivo, po, 10 mg/kg) [ng·h/mL] | Cmax ([3]; rat, in vivo, po, 10 mg/kg) [ng/mL] | bioavailability ([3]; rat, in vivo, po, 10 mg/kg) [%] | half-life ([3]; rat, in vivo, po, 10 mg/kg) [h] | improvement in oral bioavailability in comparison with naltrexone ([3]; rats, oral administration) [fold] | AUC∞ [4] [ng·h/mL] | Bioavailability (F %) [4] [%] | Cmax [4] [ng/mL]
NC(=O)c1ccc2c(c1O)[C@]13CCN(CC4CC4)[C@H](C2)[C@]1(O)CCC(=O)C3 [Compound 1] | 4470 | 627 | 68 | 5.4 | over 4 fold | 491 | 3.2 | over 50 fold | 104 | 66 | 1320 | 929 | 15 | 1.2 | 4 |  |  | 
O=C1CC[C@@]2(O)[C@H]3Cc4ccc(O)c5c4[C@@]2(CCN3CC2CC2)[C@H]1O5 [Naltrexone, reference compound] | 54 | 13 | 13 |  |  |  |  |  |  |  | 150 | 61.6 | 3 |  |  | 4.2 | 1.1 | 2.7
